From patent US20260241012A1, “1,8-NAPHTHYRIDIN-2-ONE HETEROBIFUNCTIONAL BCL6 DEGRADERS” (Treeline Biosciences, Inc., priority 2022, published 2026)

Target: T1, N-terminal HiBiT tagged BCL6 (Homo sapiens, UniProt P41182)
T1 construct: expressed in transfected cells; host or cells: HT1080 (ATCC CCL-121), stably transduced with lentivirus pLV-UBC-N-HiBiT-BCL6-PGK-puro
Assay: HiBiT based degradation assay
Format: cell-based
Details: HT1080 cells expressing N-terminal HiBiT tagged BCL6, 5 hours of incubation; for Ymin (5 hr): BCL6 degradation normalized with DMSO control; for DC50: four-parameter logistic model, read-out: EC50 (5 hr)
Summary of the method: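 Degradation measured by luminescence from the Nano-Glo HiBiT lytic reagent (15 min, room temperature), normalized to DMSO controls and fitted to a four-parameter curve.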

Row | Ymin (5 hr) | DC50 | SMILES
1 | ++++ (Ymin < 30%) | < 10 nM | CNC(=O)COc1cc2cc(Nc3nc(N4CC5(CCC(Oc6ccc7c(C8CCC(=O)NC8=O)nn(C)c7c6)CC5)C4)ncc3Cl)cnc2n(C)c1=O (stereo not shown) [Compound 144, 2-((6-((5-chloro-2-(7-((3-(2,6-dioxopiperidin-3-yl)-1-methyl-1H-indazol-6-yl)oxy)-2-azaspiro[3.5]nonan-2-yl)pyrimidin-4-yl)amino)-1-methyl-2-oxo-1,2-dihydro-1,8-naphthyridin-3-yl)oxy)-N-methylacetamide]
2 | ++++ (Ymin < 30%) | < 10 nM | CCn1c(=O)c(OCC(=O)NC)cc2cc(Nc3nc(N4CCN(CC5CCN(c6cccc7c(C8CCC(=O)NC8=O)nn(C)c67)CC5)CC4)ncc3Cl)cnc21 (stereo not shown) [Compound 145, 2-((6-((5-chloro-2-(4-((1-(3-(2,6-dioxopiperidin-3-yl)-1-methyl-1H-indazol-7-yl)piperidin-4-yl)methyl)piperazin-1-yl)pyrimidin-4-yl)amino)-1-ethyl-2-oxo-1,2-dihydro-1,8-naphthyridin-3-yl)oxy)-N-methylacetamide]
3 | ++++ (Ymin < 30%) | 10 to 100 nM | CNC(=O)COc1cc2cc(Nc3nc(N4CCN(CC5CCN(c6cccc7c(C8CCC(=O)NC8=O)nn(C)c67)CC5)[C@H](CO)C4)ncc3Cl)cnc2n(C(C)C)c1=O (stereo partly drawn) [Compound 146a, 2-((6-((5-chloro-2-((3S)-4-((1-(3-(2,6-dioxopiperidin-3-yl)-1-methyl-1H-indazol-7-yl)piperidin-4-yl)methyl)-3-(hydroxymethyl)piperazin-1-yl)pyrimidin-4-yl)amino)-1-isopropyl-2-oxo-1,2-dihydro-1,8-naphthyridin-3-yl)oxy)-N-methylacetamide]
4 | ++++ (Ymin < 30%) | 10 to 100 nM | CNC(=O)COc1cc2cc(Nc3nc(N4CCN(CC5CCN(c6cccc7c(C8CCC(=O)NC8=O)nn(C)c67)CC5)[C@@H](CO)C4)ncc3Cl)cnc2n(C(C)C)c1=O (stereo partly drawn) [Compound 146b, 2-((6-((5-chloro-2-((3R)-4-((1-(3-(2,6-dioxopiperidin-3-yl)-1-methyl-1H-indazol-7-yl)piperidin-4-yl)methyl)-3-(hydroxymethyl)piperazin-1-yl)pyrimidin-4-yl)amino)-1-isopropyl-2-oxo-1,2-dihydro-1,8-naphthyridin-3-yl)oxy)-N-methylacetamide]
5 | ++++ (Ymin < 30%) | < 10 nM | CNC(=O)COc1cc2cc(Nc3nc(N4CCC(Oc5ccc6c(C7CCC(=O)NC7=O)nn(C)c6c5)CC4)ncc3Cl)cnc2n(C)c1=O (stereo not shown) [Compound 147, 2-((6-((5-chloro-2-(4-((3-(2,6-dioxopiperidin-3-yl)-1-methyl-1H-indazol-6-yl)oxy)piperidin-1-yl)pyrimidin-4-yl)amino)-1-methyl-2-oxo-1,2-dihydro-1,8-naphthyridin-3-yl)oxy)-N-methylacetamide]
6 | +++ (30% ≤ Ymin < 50%) | < 10 nM | CNC(=O)COc1cc2cc(Nc3nc(N4CCC(Oc5cccc6c(C7CCC(=O)NC7=O)nn(C)c56)CC4)ncc3Cl)cnc2n(C)c1=O (stereo not shown) [Compound 148, 2-((6-((5-chloro-2-(4-((3-(2,6-dioxopiperidin-3-yl)-1-methyl-1H-indazol-7-yl)oxy)piperidin-1-yl)pyrimidin-4-yl)amino)-1-methyl-2-oxo-1,2-dihydro-1,8-naphthyridin-3-yl)oxy)-N-methylacetamide]
7 | +++ (30% ≤ Ymin < 50%) | 10 to 100 nM | CNC(=O)COc1cc2cc(Nc3nc(N4CCN(CC5CCC6(CC5)CN(c5cccc7c(C8CCC(=O)NC8=O)nn(C)c57)C6)CC4)ncc3Cl)cnc2n(C)c1=O (stereo not shown) [Compound 149, 2-((6-((5-chloro-2-(4-((2-(3-(2,6-dioxopiperidin-3-yl)-1-methyl-1H-indazol-7-yl)-2-azaspiro[3.5]nonan-7-yl)methyl)piperazin-1-yl)pyrimidin-4-yl)amino)-1-methyl-2-oxo-1,2-dihydro-1,8-naphthyridin-3-yl)oxy)-N-methylacetamide]
8 | ++++ (Ymin < 30%) | < 10 nM | CNC(=O)COc1cc2cc(Nc3nc(N4CCN(CC5CCN(c6cccc7c(C8CCC(=O)NC8=O)nn(C)c67)CC5)CC4)ncc3Cl)cnc2n(C2CC2)c1=O (stereo not shown) [Compound 150, 2-((6-((5-chloro-2-(4-((1-(3-(2,6-dioxopiperidin-3-yl)-1-methyl-1H-indazol-7-yl)piperidin-4-yl)methyl)piperazin-1-yl)pyrimidin-4-yl)amino)-1-cyclopropyl-2-oxo-1,2-dihydro-1,8-naphthyridin-3-yl)oxy)-N-methylacetamide]
9 | +++ (30% ≤ Ymin < 50%) | < 10 nM | CNC(=O)COc1cc2cc(Nc3nc(N4CCN(CC5CCN(c6ccc7c(C8CCC(=O)NC8=O)nn(C)c7c6)CC5)C[C@@H]4CO)ncc3Cl)cnc2n(C(C)C)c1=O (stereo partly drawn) [Compound 151a, 2-((6-((5-chloro-2-((2R)-4-((1-(3-(2,6-dioxopiperidin-3-yl)-1-methyl-1H-indazol-6-yl)piperidin-4-yl)methyl)-2-(hydroxymethyl)piperazin-1-yl)pyrimidin-4-yl)amino)-1-isopropyl-2-oxo-1,2-dihydro-1,8-naphthyridin-3-yl)oxy)-N-methylacetamide]
10 | ++ (50% ≤ Ymin < 70%) | < 10 nM | CNC(=O)COc1cc2cc(Nc3nc(N4CCN(CC5CCN(c6ccc7c(C8CCC(=O)NC8=O)nn(C)c7c6)CC5)C[C@H]4CO)ncc3Cl)cnc2n(C(C)C)c1=O (stereo partly drawn) [Compound 151b, 2-((6-((5-chloro-2-((2S)-4-((1-(3-(2,6-dioxopiperidin-3-yl)-1-methyl-1H-indazol-6-yl)piperidin-4-yl)methyl)-2-(hydroxymethyl)piperazin-1-yl)pyrimidin-4-yl)amino)-1-isopropyl-2-oxo-1,2-dihydro-1,8-naphthyridin-3-yl)oxy)-N-methylacetamide]
11 | +++ (30% ≤ Ymin < 50%) | 10 to 100 nM | CNC(=O)COc1cc2cc(Nc3cc(N4CCC(CN5CCN(c6cccc7c(C8CCC(=O)NC8=O)nn(C)c67)CC5)CC4)ncc3Cl)cnc2n(C(C)C)c1=O (stereo not shown) [Compound 152, 2-((6-((5-chloro-2-(4-((4-(3-(2,6-dioxopiperidin-3-yl)-1-methyl-1H-indazol-7-yl)piperazin-1-yl)methyl)piperidin-1-yl)pyridin-4-yl)amino)-1-isopropyl-2-oxo-1,2-dihydro-1,8-naphthyridin-3-yl)oxy)-N-methylacetamide]
12 | +++ (30% ≤ Ymin < 50%) | < 10 nM | CNC(=O)COc1cc2cc(Nc3nc(N4CCN(CC5CCN(c6ccc7c(C8CCC(=O)NC8=O)nn(C)c7c6)CC5)[C@@H](CO)C4)ncc3Cl)cnc2n(C(C)C)c1=O (stereo partly drawn) [Compound 153a, 2-((6-((5-chloro-2-((3R)-4-((1-(3-(2,6-dioxopiperidin-3-yl)-1-methyl-1H-indazol-6-yl)piperidin-4-yl)methyl)-3-(hydroxymethyl)piperazin-1-yl)pyrimidin-4-yl)amino)-1-isopropyl-2-oxo-1,2-dihydro-1,8-naphthyridin-3-yl)oxy)-N-methylacetamide]
13 | +++ (30% ≤ Ymin < 50%) | < 10 nM | CNC(=O)COc1cc2cc(Nc3nc(N4CCN(CC5CCN(c6ccc7c(C8CCC(=O)NC8=O)nn(C)c7c6)CC5)[C@H](CO)C4)ncc3Cl)cnc2n(C(C)C)c1=O (stereo partly drawn) [Compound 153b, 2-((6-((5-chloro-2-((3S)-4-((1-(3-(2,6-dioxopiperidin-3-yl)-1-methyl-1H-indazol-6-yl)piperidin-4-yl)methyl)-3-(hydroxymethyl)piperazin-1-yl)pyrimidin-4-yl)amino)-1-isopropyl-2-oxo-1,2-dihydro-1,8-naphthyridin-3-yl)oxy)-N-methylacetamide]
14 | ++++ (Ymin < 30%) | < 10 nM | CNC(=O)COc1cc2cc(Nc3nc(N4CCN(CC5CCN(c6cccc7c(C8CCC(=O)NC8=O)nn(C)c67)CC5)CC4)ncc3Cl)cnc2n(CCOC)c1=O (stereo not shown) [Compound 154, 2-((6-((5-chloro-2-(4-((1-(3-(2,6-dioxopiperidin-3-yl)-1-methyl-1H-indazol-7-yl)piperidin-4-yl)methyl)piperazin-1-yl)pyrimidin-4-yl)amino)-1-(2-methoxyethyl)-2-oxo-1,2-dihydro-1,8-naphthyridin-3-yl)oxy)-N-methylacetamide]
15 | +++ (30% ≤ Ymin < 50%) | 10 to 100 nM | CNC(=O)COc1cc2cc(Nc3nc(N4CCN(CC5CCN(c6cccc7c(C8CCC(=O)NC8=O)nn(C)c67)CC5)C[C@H]4CO)ncc3Cl)cnc2n(C(C)C)c1=O (stereo partly drawn) [Compound 155a, 2-((6-((5-chloro-2-((2S)-4-((1-(3-(2,6-dioxopiperidin-3-yl)-1-methyl-1H-indazol-7-yl)piperidin-4-yl)methyl)-2-(hydroxymethyl)piperazin-1-yl)pyrimidin-4-yl)amino)-1-isopropyl-2-oxo-1,2-dihydro-1,8-naphthyridin-3-yl)oxy)-N-methylacetamide]
16 | ++++ (Ymin < 30%) | < 10 nM | CNC(=O)COc1cc2cc(Nc3nc(N4CCN(CC5CCN(c6cccc7c(C8CCC(=O)NC8=O)nn(C)c67)CC5)C[C@@H]4CO)ncc3Cl)cnc2n(C(C)C)c1=O (stereo partly drawn) [Compound 155b, 2-((6-((5-chloro-2-((2R)-4-((1-(3-(2,6-dioxopiperidin-3-yl)-1-methyl-1H-indazol-7-yl)piperidin-4-yl)methyl)-2-(hydroxymethyl)piperazin-1-yl)pyrimidin-4-yl)amino)-1-isopropyl-2-oxo-1,2-dihydro-1,8-naphthyridin-3-yl)oxy)-N-methylacetamide]
17 | ++++ (Ymin < 30%) | 10 to 100 nM | CNC(=O)COc1cc2cc(Nc3nc(N4CCN(CC5CCN(c6cccc7c(C8CCC(=O)NC8=O)nn(C)c67)CC5)CC4)ncc3Cl)cnc2n(CC2CC2)c1=O (stereo not shown) [Compound 157, 2-((6-((5-chloro-2-(4-((1-(3-(2,6-dioxopiperidin-3-yl)-1-methyl-1H-indazol-7-yl)piperidin-4-yl)methyl)piperazin-1-yl)pyrimidin-4-yl)amino)-1-(cyclopropylmethyl)-2-oxo-1,2-dihydro-1,8-naphthyridin-3-yl)oxy)-N-methylacetamide]
